This note sets out measurements from patent US8822462B2, “Subunit selective NMDA receptor potentiators for the treatment of neurological conditions” (Emory University, priority 2009, dated 2014).

For assay [1], the system named is native NMDA receptor responses in subthalamic neurons. Kind of assay: Patch clamp recording from slices of subthalamic nuclei, pressure-applied NMDA/glycine. It is filed as cell-based.
Assay [2] deals with T1, NR1/NR2D (Homo sapiens, UniProt O15399). Kind of assay: Single channel currents in excised outside-out patches. Details: expressed in transfected cells. Format: cell-based. The text has this: Values are mean+SEM (n=14-20). […] C is the closed level; broken line is the open level.
Our initial studies varying the compound structure confirm that there are strict requirements for the position and type of substituent on the isoquinoline backbone (see Table 3).
Target sequence in this assay (O15399 28-1336, other chains not shown): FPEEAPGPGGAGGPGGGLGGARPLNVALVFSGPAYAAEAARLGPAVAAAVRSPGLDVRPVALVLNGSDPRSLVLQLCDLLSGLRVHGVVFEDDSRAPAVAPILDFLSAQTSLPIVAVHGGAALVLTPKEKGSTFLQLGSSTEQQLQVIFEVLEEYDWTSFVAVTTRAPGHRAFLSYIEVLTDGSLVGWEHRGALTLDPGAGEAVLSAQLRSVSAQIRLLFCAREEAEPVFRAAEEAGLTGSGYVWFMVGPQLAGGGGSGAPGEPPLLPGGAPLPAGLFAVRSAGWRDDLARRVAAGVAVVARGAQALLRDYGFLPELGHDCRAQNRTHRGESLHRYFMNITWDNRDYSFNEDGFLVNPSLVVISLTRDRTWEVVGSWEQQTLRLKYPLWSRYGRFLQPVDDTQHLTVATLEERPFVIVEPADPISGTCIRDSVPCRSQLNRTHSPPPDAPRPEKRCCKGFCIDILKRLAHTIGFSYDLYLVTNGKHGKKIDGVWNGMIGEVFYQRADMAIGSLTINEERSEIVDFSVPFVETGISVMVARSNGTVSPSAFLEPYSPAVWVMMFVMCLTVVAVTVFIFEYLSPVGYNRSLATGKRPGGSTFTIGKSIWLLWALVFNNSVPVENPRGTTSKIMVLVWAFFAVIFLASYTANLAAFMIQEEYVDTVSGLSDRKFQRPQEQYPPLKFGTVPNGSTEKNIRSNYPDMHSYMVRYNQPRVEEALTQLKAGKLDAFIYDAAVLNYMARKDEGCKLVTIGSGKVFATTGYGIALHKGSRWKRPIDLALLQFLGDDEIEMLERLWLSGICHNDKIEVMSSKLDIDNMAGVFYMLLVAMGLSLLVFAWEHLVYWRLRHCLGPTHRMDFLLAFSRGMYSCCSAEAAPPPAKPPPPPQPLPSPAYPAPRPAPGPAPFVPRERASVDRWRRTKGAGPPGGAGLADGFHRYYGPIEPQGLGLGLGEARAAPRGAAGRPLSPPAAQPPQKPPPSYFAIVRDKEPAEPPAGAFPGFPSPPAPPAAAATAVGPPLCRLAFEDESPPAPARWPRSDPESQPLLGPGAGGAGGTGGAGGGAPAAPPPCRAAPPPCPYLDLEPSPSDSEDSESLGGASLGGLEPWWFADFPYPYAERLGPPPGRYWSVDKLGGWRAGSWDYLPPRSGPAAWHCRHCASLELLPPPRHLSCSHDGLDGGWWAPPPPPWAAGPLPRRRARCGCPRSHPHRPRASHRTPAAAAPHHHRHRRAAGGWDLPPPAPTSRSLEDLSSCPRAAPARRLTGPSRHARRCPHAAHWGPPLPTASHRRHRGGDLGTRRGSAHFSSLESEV

The subject of assay [3] is recombinant NMDA receptors. Nature of the assay: Voltage and pH dependence of potentiation of recombinant NMDA receptors. Format: cell-based. The text has this: FIG. 2A illustrates the subunit-selectivity with which the compounds of Formula A, including a specific compound herein referred to as DIQ-1180, acts on recombinant NMDA receptors. The structure of DIQ-1180 is shown below.
The Hill slope at both receptors for all analogues was greater than 1, consistent with a cooperative effect of binding at two sites.

The target in assay [4] is NR1/NR2D (Homo sapiens, UniProt O15399+Q05586). Nature of the assay: Two electrode voltage clamp, Xenopus laevis oocytes expressing NR1/NR2D. The conditions noted are these: for Emax: read-out: 2D Max; for activity at 100 µM: read-out: 2D percent effect at the maximum tested concentration, at 100 μM.
For assay [5], the target named is T1, NR1/NR2D. The description is as above.
Target sequence in this assay (O15399 28-1336, species assumed, other chains not shown): as the sequence (O15399 28-1336, other chains not shown) above
Assay [6] concerns the target T2, NR1/NR2C (Homo sapiens, UniProt Q05586+Q14957).
T2 construct: expressed in transfected cells; host or cells: Xenopus laevis oocytes
Nature of the assay: Two electrode voltage clamp, Xenopus laevis oocytes expressing NR1/NR2C. Format: cell-based. Conditions: for IC50: fitted to composite concentration-effect data, read-out: 2C IC50; for Emax: maximal effect of fit, read-out: 2C Max; for activity at 100 µM: read-out: 2C percent effect at the maximum tested concentration. In general terms: Two-electrode voltage clamp is typically applied to oocytes expressing channels or transporters.

Assay [7] addresses T3, NR1/NR2C (Homo sapiens, UniProt Q14957).
T3 construct: expressed in transfected cells; host or cells: Xenopus laevis oocytes
The assay is described as above. It is filed as cell-based.

A further assay concerns the target T4, NR1/NR2B (Homo sapiens, UniProt Q05586+Q13224).
T4 construct: expressed in transfected cells; host or cells: Xenopus laevis oocytes
Kind of assay: Two electrode voltage clamp, Xenopus laevis oocytes expressing NR1/NR2B. The conditions noted are these: for activity at 100 µM: read-out: 2B percent effect at the maximum tested concentration. Format: cell-based. On the procedure: (§1) In the table above, potency is expressed as fitted EC50 value to average composite concentration-effect data constructed from current responses recorded under two electrode voltage clamp from Xenopus laevis oocytes expressing either NR1/NR2A, B, C, or D, GluR1, or GluR6. No effect means less than 20% change in response amplitude at 30 μM of drug.

The next assay concerns the target T5, NR1/NR2A (Homo sapiens, UniProt Q12879).
T5 construct: expressed in transfected cells; host or cells: Xenopus laevis oocytes
Kind of assay: Two electrode voltage clamp, Xenopus laevis oocytes expressing NR1/NR2A. Format: cell-based. Conditions: at 100 μM; read-out: 2A percent effect at the maximum tested concentration. On the procedure: as §1

T4 sequence (Q13224 27-1484, species assumed, other chains not shown): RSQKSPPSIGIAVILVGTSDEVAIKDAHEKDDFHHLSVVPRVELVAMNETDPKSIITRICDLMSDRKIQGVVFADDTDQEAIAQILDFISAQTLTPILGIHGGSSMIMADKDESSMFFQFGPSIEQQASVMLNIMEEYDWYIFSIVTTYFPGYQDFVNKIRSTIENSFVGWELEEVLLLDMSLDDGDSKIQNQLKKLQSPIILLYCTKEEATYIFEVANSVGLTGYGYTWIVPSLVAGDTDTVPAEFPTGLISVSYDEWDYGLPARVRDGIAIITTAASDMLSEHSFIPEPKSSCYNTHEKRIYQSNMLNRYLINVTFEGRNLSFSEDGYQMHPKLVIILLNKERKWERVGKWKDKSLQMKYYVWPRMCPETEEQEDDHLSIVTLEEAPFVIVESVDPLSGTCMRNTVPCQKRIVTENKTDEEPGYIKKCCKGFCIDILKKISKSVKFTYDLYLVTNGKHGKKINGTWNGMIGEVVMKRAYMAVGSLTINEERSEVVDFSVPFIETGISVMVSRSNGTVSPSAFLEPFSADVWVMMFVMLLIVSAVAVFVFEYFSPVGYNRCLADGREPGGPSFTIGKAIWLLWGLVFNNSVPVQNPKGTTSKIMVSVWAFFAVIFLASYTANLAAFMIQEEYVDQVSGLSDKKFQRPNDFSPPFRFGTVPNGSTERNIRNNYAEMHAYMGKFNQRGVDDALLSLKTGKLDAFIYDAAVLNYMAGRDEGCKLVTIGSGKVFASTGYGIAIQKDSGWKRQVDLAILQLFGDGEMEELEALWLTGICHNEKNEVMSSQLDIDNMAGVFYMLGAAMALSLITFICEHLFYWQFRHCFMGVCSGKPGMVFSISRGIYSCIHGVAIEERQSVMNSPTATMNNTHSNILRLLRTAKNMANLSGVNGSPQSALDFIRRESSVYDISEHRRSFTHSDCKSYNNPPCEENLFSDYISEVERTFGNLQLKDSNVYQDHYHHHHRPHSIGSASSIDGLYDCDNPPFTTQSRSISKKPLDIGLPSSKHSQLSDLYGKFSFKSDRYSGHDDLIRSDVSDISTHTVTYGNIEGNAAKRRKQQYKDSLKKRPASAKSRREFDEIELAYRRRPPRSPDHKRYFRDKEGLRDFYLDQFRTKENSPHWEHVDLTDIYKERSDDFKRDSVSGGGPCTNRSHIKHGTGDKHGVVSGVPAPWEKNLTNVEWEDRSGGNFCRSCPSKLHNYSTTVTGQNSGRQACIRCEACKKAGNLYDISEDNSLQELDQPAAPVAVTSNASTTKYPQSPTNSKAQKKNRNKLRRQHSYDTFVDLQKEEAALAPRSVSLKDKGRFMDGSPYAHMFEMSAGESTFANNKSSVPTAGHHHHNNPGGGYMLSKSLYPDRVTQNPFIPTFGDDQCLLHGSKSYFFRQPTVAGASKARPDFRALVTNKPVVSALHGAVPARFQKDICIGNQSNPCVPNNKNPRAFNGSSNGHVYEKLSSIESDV
T5 sequence (Q12879 23-1464, species assumed, other chains not shown): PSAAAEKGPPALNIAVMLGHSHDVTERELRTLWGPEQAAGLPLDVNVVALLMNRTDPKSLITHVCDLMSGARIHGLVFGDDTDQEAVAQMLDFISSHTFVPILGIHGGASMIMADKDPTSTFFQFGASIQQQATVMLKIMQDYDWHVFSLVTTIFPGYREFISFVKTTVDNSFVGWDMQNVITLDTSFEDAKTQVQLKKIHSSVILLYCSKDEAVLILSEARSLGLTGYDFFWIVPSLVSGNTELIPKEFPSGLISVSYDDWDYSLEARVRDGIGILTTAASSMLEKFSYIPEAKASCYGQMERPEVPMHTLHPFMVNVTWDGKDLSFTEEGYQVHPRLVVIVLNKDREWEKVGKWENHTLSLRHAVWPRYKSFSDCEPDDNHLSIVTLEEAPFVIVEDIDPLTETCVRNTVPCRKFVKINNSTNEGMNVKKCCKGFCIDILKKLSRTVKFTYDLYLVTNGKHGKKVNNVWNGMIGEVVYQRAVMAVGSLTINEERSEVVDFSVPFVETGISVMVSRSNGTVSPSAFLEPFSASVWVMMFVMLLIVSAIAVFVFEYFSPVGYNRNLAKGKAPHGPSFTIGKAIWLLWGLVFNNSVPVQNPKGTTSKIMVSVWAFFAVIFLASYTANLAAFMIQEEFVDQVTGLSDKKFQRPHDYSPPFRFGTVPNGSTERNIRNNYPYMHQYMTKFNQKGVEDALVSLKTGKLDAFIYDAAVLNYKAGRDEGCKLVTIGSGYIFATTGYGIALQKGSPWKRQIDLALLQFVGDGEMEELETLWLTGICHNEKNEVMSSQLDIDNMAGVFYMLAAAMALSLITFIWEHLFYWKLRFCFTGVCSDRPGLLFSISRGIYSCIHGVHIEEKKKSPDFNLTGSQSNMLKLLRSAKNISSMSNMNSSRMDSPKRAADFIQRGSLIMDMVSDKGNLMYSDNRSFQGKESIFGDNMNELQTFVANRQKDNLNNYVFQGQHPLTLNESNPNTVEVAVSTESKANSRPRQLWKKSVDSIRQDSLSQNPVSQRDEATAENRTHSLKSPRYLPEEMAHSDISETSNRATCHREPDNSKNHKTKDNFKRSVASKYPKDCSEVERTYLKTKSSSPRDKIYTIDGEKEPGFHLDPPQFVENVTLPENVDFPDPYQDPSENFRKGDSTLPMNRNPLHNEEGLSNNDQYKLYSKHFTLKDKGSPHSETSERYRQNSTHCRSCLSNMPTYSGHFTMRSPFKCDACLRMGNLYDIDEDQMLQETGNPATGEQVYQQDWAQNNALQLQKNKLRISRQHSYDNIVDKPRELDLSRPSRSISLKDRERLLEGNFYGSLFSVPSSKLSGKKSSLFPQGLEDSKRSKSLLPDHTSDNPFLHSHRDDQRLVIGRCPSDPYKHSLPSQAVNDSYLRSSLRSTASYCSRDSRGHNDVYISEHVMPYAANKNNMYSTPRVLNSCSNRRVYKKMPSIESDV
NR1/NR2D (Homo sapiens, UniProt O15399+Q05586), sequence (O15399 28-1336, species assumed, other chains not shown): as the sequence (O15399 28-1336, other chains not shown) above

Regarding `NC(CCCP(=O)(O)O)C(=O)O` (racemic) [DL-APV, reference compound], in assay [1] (100 μM), the “current response to pressure-applied NMDA/glycine” value was “blocked”.

`COc1ccc(OCC2c3cc(OC)c(OC)cc3CCN2C(=O)c2ccccc2)cc1` (centres unmarked) [compound 1180]: at NR1/NR2D [2] (glutamate/glycine-activated unitary currents, increased from 0.083 without compound), the “total open probability (nPo)” value is on record as 0.207. Moreover, on NR1/NR2D [2] (maximally effective glutamate/glycine, FIG. 2B), the “opening frequency of recombinant NR1/NR2D single channel currents” value is given as “increased the opening frequency”. In addition, the opening frequency at NR1/NR2D [2] (reversed by washout) is listed as 178 % of control. For the same compound, the “voltage dependence of potentiating actions” value in assay [3] (n=7) is listed as “voltage-independent”. Also, the “pH dependence of potentiating actions” value in [3] (n=10-16) is given as “pH-independent”. The “current response to pressure-applied NMDA/glycine” value in assay [1] (30 μM, listed as DIQ-1180) was “potentiated”. The EC50 on NR1/NR2D [4] is 13 µM; on NR1/NR2C [6] (Example 1, read-out: EC50 value for potentiation of NR2C-containing receptors), 11 µM. Besides, the IC50 amounted to 11 µM against NR1/NR2D [4] and 12 µM on NR1/NR2C [6]. Moreover, the Emax stood at 156% on NR1/NR2D [4] and 145% at NR1/NR2C [6]. Further, the “maximal potentiation at NR2D-containing receptors” value on NR1/NR2D [5] (Example 1) is recorded as 162%. Besides, the “maximal potentiation at NR2C-containing receptors” value at NR1/NR2C [7] (Example 1) is recorded as 181%. Also, the values for the activity at 100 µM at NR1/NR2B and at NR1/NR2A were 67% and 81%, respectively.

For `CSC1=NCCN1C(=O)c1ccc2ccccc2c1` [compound 1397], the “2D percent effect at the maximum tested concentration” value on NR1/NR2D [5] (at 100 μM) is 87% at 100 μM. Besides, at NR1/NR2C [7] (at 100 μM), the “2C percent effect at the maximum tested concentration” value amounted to 98% at 100 μM.

Consider `COc1ccc(OCC2c3cc(OC)c(OC)cc3CCN2C(=O)c2cccnc2)cc1` (centres unmarked) [compound 1485], for which the activity at 100 µM on NR1/NR2D [4] was 74%; at NR1/NR2C [6], 82%; on NR1/NR2B, 85%; on NR1/NR2A it was 75%.

For `COc1ccc(OCC2c3cc(OC)c(OC)cc3CCN2C(=O)c2cccs2)cc1` (centres unmarked) [compound 1486], the IC50 was 6 µM on NR1/NR2D [4] and 9 µM on NR1/NR2C [6]. The Emax was determined as 112% on NR1/NR2D [4] and 131% at NR1/NR2C [6]. For the same compound, the figures for the activity at 100 µM at NR1/NR2B and on NR1/NR2A were 88% and 78%, respectively.

As for `COc1ccc(OCC2c3cc(OC)c(OC)cc3CCN2S(=O)(=O)c2ccccc2)cc1` (centres unmarked) [compound 1487], the activity at 100 µM was found to be 79% at NR1/NR2D [4], 69% at NR1/NR2C [6], 71% on NR1/NR2B and 89% at NR1/NR2A.

On to `CC(C)c1ccc(C(=O)Nc2sccc2C(=O)O)cc1` [compound 1488], for which the activity at 100 µM was found to be 80% on NR1/NR2D [4], 82% at NR1/NR2C [6], 83% on NR1/NR2B and 98% on NR1/NR2A.

For `CCc1ccc(C(=O)Nc2sccc2C(=O)O)cc1` [compound 1489], the activity at 100 µM at NR1/NR2D [4] is 76%; on NR1/NR2C [6], 83%; at NR1/NR2B it was 78%; at NR1/NR2A, 95%.

`CC(C)(C)c1ccc(CSc2nc(N)cc(O)n2)cc1` [compound 1563]: the IC50 on NR1/NR2D [4] came out at 68 µM; on NR1/NR2C [6], 39 µM; on NR1/NR2B (fitted to composite concentration-effect data, Max 0 = inhibition, read-out: 2B IC50), 24 µM. Besides, the Emax on NR1/NR2D [4] was 614%; on NR1/NR2C [6] it was 424%. Moreover, the activity at 100 µM at NR1/NR2A worked out at 91%.

A word on the EC50: it is the midpoint of the concentration-response curve. In general, IC50 refers to the midpoint of a concentration-inhibition curve.
